For one assay, the system named is MDA-MB-231. Nature of the assay: Cytotoxicity against human MDA-MB-231 cells assessed as growth inhibition after 72 hrs by MTT assay. It counts as functional, cell-based. To be noted: MDA-MB-231, 72 h.
The subject of another assay is MCF7. Nature of the assay: Cytotoxicity against human MCF7 cells assessed as growth inhibition after 72 hrs by MTT assay. Type of assay: functional, cell-based. To be noted: MCF7, 72 h.
The next assay deals with K562. Nature of the assay: Cytotoxicity against human K562 cells assessed as growth inhibition after 72 hrs by MTT assay. To be noted: K562, 72 h. It counts as functional, cell-based.
The test system of assay [1] is HepG2. Nature of the assay: Cytotoxicity against human HepG2 cells assessed as growth inhibition after 72 hrs by MTT assay. The conditions noted are these: HepG2, 72 h. Type of assay: functional, cell-based.
The subject of assay [2] is HepG2. The assay is described as follows: Cytotoxicity against adriamycin-resistant human HepG2 cells assessed as growth inhibition after 72 hrs by MTT assay. It counts as functional, cell-based. The conditions noted are these: HepG2, 72 h. A general note: Tetrazolium dyes change colour on reduction, which living cells bring about.
Assay [3] in a line: Cytotoxicity against KM mouse splenic lymphocytes assessed as growth inhibition after 72 hrs by MTT assay. The conditions noted are these: Splenic lymphocyte.
Another assay deals with Tubulin (Homo sapiens) (UniProt P68371+Q9H4B7+P0DPH7+P68366+Q13509+Q71U36+P04350+Q3ZCM7+P07437+P68363+Q9BQE3+Q6PEY2+Q13885+Q9BVA1+Q9BUF5). Nature of the assay: Inhibition of tubulin polymerization (unknown origin) after 90 mins. Type of assay: protein-complex assay.

Where a name gives a salt, the structure may show the parent alone. Activity calls are given as the source filed them. The rule behind the calls is not given here.

In the case of `Cc1cccc(/C=C/C2=Nc3ccccc3C2(C)C)c1`, the half-inhibitory concentration (IC50) was found to be 10.1 µM in the assay with MDA-MB-231; 8.31 µM in the assay on MCF7; 20.7 µM in the assay on K562; 16.4 µM in the assay on HepG2 [1]; 10.2 µM in the assay on HepG2 [2].
The like results for `COc1ccccc1/C=C/C1=Nc2ccccc2C1(C)C` were, in that order, 10.7 µM, 5.13 µM, 22.9 µM, 22 µM and 12.6 µM.
Take `CC1(C)C(/C=C/c2cccc(C(F)(F)F)c2)=Nc2ccccc21`: the IC50 in assay [3] turned out to be 36.3 µM; with MDA-MB-231 it was 3.2 µM; in the assay with MCF7 it was 2.13 µM; in the assay with K562, 9.83 µM; in the assay on HepG2 [1], 11.7 µM; in the assay with HepG2 [2], 9.54 µM.
For the molecule `COc1cccc(/C=C/C2=Nc3ccccc3C2(C)C)c1`, the IC50 is 3.1 µM in the assay on MDA-MB-231; 2.19 µM in the assay on MCF7; 9.64 µM in the assay on K562; 11.4 µM in the assay with HepG2 [1]; 9.94 µM in the assay with HepG2 [2]. The inhibition entry on Tubulin (Homo sapiens) is “Active”.
As for `COc1ccc2[nH]cc(/C=C/C3=Nc4ccccc4C3(C)C)c2c1`, the IC50 with MDA-MB-231 turned out to be 14 µM; in the assay on MCF7 it was 7.05 µM; in the assay on K562, 16.9 µM; in the assay with HepG2 [1] it was 18.5 µM; in the assay with HepG2 [2], 23.4 µM.
For the molecule `CC1(C)C(/C=C/c2c[nH]c3ccc(Br)cc23)=Nc2ccccc21`, the IC50 came out at 21.8 µM with MDA-MB-231; 21 µM in the assay with MCF7; 20.1 µM in the assay on K562; 21.5 µM in the assay with HepG2 [1]; 9.1 µM with HepG2 [2].
The like results for `Cn1cc(/C=C/C2=Nc3ccccc3C2(C)C)c2ccccc21` were, in that order, 22.4 µM, 12.6 µM, 20.8 µM, 39.4 µM and 18.7 µM.
`COc1ccc(/C=C/C2=Nc3ccccc3C2(C)C)cc1OC`: the IC50 amounted to 9.11 µM in the assay on MDA-MB-231; 12 µM in the assay on MCF7; 37.1 µM in the assay on K562; 35 µM with HepG2 [1]; 28.6 µM in the assay with HepG2 [2].
The corresponding values for `COc1ccc(/C=C/C2=Nc3ccccc3C2(C)C)cc1` are 15.6 µM, 10.4 µM, 19.9 µM, 20.8 µM and 47 µM.
The like results for `CN(C)c1ccc(/C=C/C2=Nc3ccccc3C2(C)C)cc1` were, in that order, 15.1 µM, 8.1 µM, 25.7 µM, 17.9 µM and 22.1 µM.
The corresponding values for `Cc1ccc(/C=C/C2=Nc3ccccc3C2(C)C)cc1` are 22 µM, 13.2 µM, 26.1 µM, 43.9 µM and over 50 µM.
On to `CCC12C=CCN3CC[C@@]4(c5ccc(OC)cc5N(C)[C@H]4[C@@](O)(C(=O)OC)[C@@H]1OC(C)=O)[C@@H]32` (stereo partly specified) [VINDOLINE], for which the IC50 with MDA-MB-231, in the assay with MCF7, in the assay on K562, in the assay with HepG2 [1] and in the assay with HepG2 [2] was over 50 µM throughout.
As for `CC1(C)C(/C=C/c2ccc(C(F)(F)F)cc2)=Nc2ccccc21`, the 50% inhibitory concentration (IC50) in assay [3] worked out at 35.4 µM; in the assay on MDA-MB-231, 2.63 µM; in the assay with MCF7 it was 1.45 µM; in the assay with K562, 8.87 µM; in the assay on HepG2 [1], 9.49 µM; in the assay with HepG2 [2], 7.91 µM. Further, the inhibition result at Tubulin (Homo sapiens) is “Active”.
Take `Cc1ccc2[nH]cc(/C=C/C3=Nc4ccccc4C3(C)C)c2c1`: the IC50 with MDA-MB-231 was determined as 14.6 µM; in the assay with MCF7, 15.9 µM; in the assay on K562, 21.2 µM; in the assay on HepG2 [1], 18.7 µM; in the assay on HepG2 [2], 6.13 µM.
The like results for `Cc1c(/C=C/C2=Nc3ccccc3C2(C)C)c2ccccc2n1C` were, in that order, 38.5 µM, 17.1 µM, 23.2 µM, 35.9 µM and 3.34 µM.
The like results for `CC1(C)C(/C=C/c2c[nH]c3cc(Cl)ccc23)=Nc2ccccc21` were, in that order, 20.1 µM, 19 µM, 13 µM, 18.1 µM and 9.98 µM.
On to `CC[C@]1(O)C[C@@H]2CN(CCc3c([nH]c4ccccc34)[C@@](C(=O)OC)(c3cc4c(cc3OC)N(C)[C@H]3[C@@](O)(C(=O)OC)[C@H](OC(C)=O)[C@]5(CC)C=CCN6CC[C@]43[C@@H]65)C2)C1` [VINBLASTINE], for which the IC50 in assay [3] turned out to be 0.0016 µM.
With `CC1(C)C(/C=C/c2ccc([N+](=O)[O-])cc2)=Nc2ccccc21`, the half-maximal inhibitory concentration (IC50) came to 20.7 µM in assay [3]; 2.01 µM with MDA-MB-231; 0.96 µM in the assay with MCF7; 4.32 µM in the assay on K562; 5.55 µM with HepG2 [1]; 2.49 µM with HepG2 [2].
Regarding `CC1(C)C(/C=C/c2ccccc2[N+](=O)[O-])=Nc2ccccc21`, the half-inhibitory concentration (IC50) in the assay on MDA-MB-231 is 3.77 µM; in the assay with MCF7 it was 1.75 µM; in the assay on K562, 13 µM; with HepG2 [1] it was 12.7 µM; with HepG2 [2], 9.74 µM.
The corresponding values for `CCC1=C[C@@H]2CN3CCc4c([nH]c5ccccc45)[C@@](C(=O)OC)(C2)[C@@H]13` are over 50 µM, over 50 µM, over 50 µM, over 50 µM and over 50 µM.
The corresponding values for `CC1(C)C(/C=C/c2c[nH]c3c([N+](=O)[O-])cccc23)=Nc2ccccc21` are 26.1 µM, 11.2 µM, 21 µM, 16.8 µM and 4 µM.
The like results for `CC[C@]1(O)C[C@@H]2CN(CCc3c([nH]c4ccccc34)[C@@](C(=O)OC)(c3cc4c(cc3OC)N(C)[C@H]3[C@@](O)(C(=O)OC)[C@H](OC(C)=O)[C@]5(CC)C=CCN6CC[C@]43[C@@H]65)C2)C1` [VINBLASTINE SULFATE] were, in that order, 0.0083 µM, 0.007 µM, 0.016 µM, 0.019 µM and 0.056 µM.
As for `Cc1[nH]c2ccccc2c1/C=C/C1=Nc2ccccc2C1(C)C`, the half-inhibitory concentration (IC50) came to 32.6 µM with MDA-MB-231; 6.25 µM with MCF7; 22.7 µM with K562; 15.4 µM in the assay on HepG2 [1]; 4.41 µM with HepG2 [2].
The like results for `CC1(C)C(/C=C/c2ccc(Br)cc2)=Nc2ccccc21` were, in that order, 5.16 µM, 5.26 µM, 20.2 µM, 15.6 µM and 9.92 µM.
The corresponding values for `CC1(C)C(/C=C/c2c[nH]c3cc(F)ccc23)=Nc2ccccc21` are 24.4 µM, 3.47 µM, 20.2 µM, 9.87 µM and 14.9 µM.
The like results for `CCN(CC)c1ccc(/C=C/C2=Nc3ccccc3C2(C)C)cc1` were, in that order, 16.1 µM, 11.8 µM, 28.2 µM, 22.9 µM and 15.1 µM.

For orientation: IC50 means the concentration that gives 50% inhibition.
